Laboratory results from patent US11000033B2, “Ketone or oxime compound, and herbicide” (NISSAN CHEMICAL CORPORATION, priority 2014, dated 2021).

Key:
Type in all cases: in vivo
transplanted rice plant = experiment: Test Example 1: effect on crop, application before weed generation in submerged conditions (symbol a); details: application herbicide amount 320 g/ha
Outline: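 Rice at 2.5 leaf stage transplanted into submerged soil (4 cm depth) sown with three weed species; herbicide applied before weed emergence.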

Abutilon theophrasti = experiment: Test Example 4: herbicidal effect by soil treatment (symbol M)
Outline: (§1)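 Seeds were sown in sterilized diluvial soil, covered with about 1.5 cm of soil, and the soil surface was sprayed with a water-diluted emulsion of the compound at a predetermined rate. Plants grew in a greenhouse at 25° C. to 30° C.; effects were scored visually 3 weeks after application.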

Cyperus difformis = experiment: Test Example 3: herbicidal effect by foliage application, Wagner pot (symbol E); details: application herbicide amount 320 g/ha
Outline: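 Plants sown in submerged alluvial soil (water depth 0.1–0.5 cm) in a 25–30 °C greenhouse and grown 14 days. An emulsion of the compound diluted in water to a set herbicide amount was sprayed uniformly on foliage. Effect on each plant scored 3 weeks after application.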

beet = experiment: Test Example 5: effect on crop by foliage application, plastic box (symbol f); details: 320 g/ha, 3 weeks after application
Outline: (§2)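 Crop and weed seeds sown in spots in sterilized diluvial soil in plastic boxes and covered with about 1.5 cm soil. Plants raised in a greenhouse at 25° C. to 30° C. for foliar application.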

[1] = system: Echinochloa crus-galli var. crus-galli; experiment: Test Example 5: herbicidal effect by foliage application, plastic box (symbol H); details: 320 g/ha, 3 weeks after application
Outline: (§3)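 Leaf-applied emulsion, water-diluted to a preset herbicide dose, on two-week-old seedlings raised in a 25° C. to 30° C. greenhouse; injury rated at 3 weeks using earlier criteria.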

Stellaria media = experiment: Test Example 4: herbicidal effect by soil treatment (symbol P)
Outline: as §1

soybean = experiment: Test Example 5: effect on crop by foliage application, plastic box (symbol d); details: 320 g/ha, 3 weeks after application
Outline: as §2

Scirpus juncoides = experiment: Test Example 2: herbicidal activity, application during weed generation in submerged conditions (symbol B); details: Table 23; application herbicide amount 320 g/ha; grade 0-5 by criteria of Test Example 1
Outline: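 Seeds sown in flooded alluvial soil (4 cm water) were grown in a 25-30° C greenhouse. At the one- to two-leaf stage, diluted emulsion of compound was applied to the water surface at a predetermined rate. Effect was scored 3 weeks later.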

rice = experiment: Test Example 4: effect on crop by soil treatment (symbol b); details: for b: directly sowed rice plant, effect on crop grade: application herbicide amount 320 g/ha; for b: directly sowed rice plant, effect grade on crop: 320 g/ha
Outline: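 Soil-treatment setup: crop and weed seeds were spot-sown into sterilized diluvial soil, then buried beneath approximately 1.5 cm of it, and the boxes were housed in a 25–30° C. greenhouse.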

[2] = system: Echinochloa crus-galli var. crus-galli; experiment: Test Example 4: herbicidal effect by soil treatment (symbol H)
Outline: as §1

Alopecurus myosuroides = experiment: Test Example 5: herbicidal effect by foliage application, plastic box (symbol J); details: 320 g/ha, 3 weeks after application
Outline: as §3

corn [3] = experiment: Test Example 4: effect on crop by soil treatment (symbol c); details: for c: corn, effect on crop grade: application herbicide amount 320 g/ha; for c: corn, effect grade on crop: 320 g/ha
Outline: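 Diluvial soil (sterilized) in boxes; seeds placed spot-wise alongside weed species; ~1.5 cm covering soil. Greenhouse, 25–30° C.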

Apera spica-venti = experiment: Test Example 4: herbicidal effect by soil treatment (symbol L)
Outline: as §1

corn [4] = experiment: Test Example 5: effect on crop by foliage application, plastic box (symbol c); details: 320 g/ha, 3 weeks after application
Outline: as §2

[5] = application herbicide amount 320 g/ha

COC(=O)C(C(=O)C1CC1)C1CC(O)=C(c2c(C)cc(C)cc2C)C1=O (stereo not drawn) [2-014]
Effect grade on crop, a: transplanted rice plant (transplanted rice plant): 1 (Herbicidal ratio of 5% or higher and lower than 20%)
M: Abutilon theophrasti, herbicidal effect grade (Abutilon theophrasti; [5]): 0 (Herbicidal ratio of 5% or lower (almost no effect))
herbicidal effect on E, grade 0-5 (Cyperus difformis): 5 (Herbicidal ratio of 90% or more (almost completely withered))
f: beet, effect on crop grade (beet): 0 (Herbicidal ratio of 5% or lower (almost no effect))
H: Echinochloa crus-galli var. crus-galli, herbicidal effect grade [1]: 5 (Herbicidal ratio of 90% or more (almost completely withered))
P: Stellaria media, herbicidal effect grade (Stellaria media; [5]): 0 (Herbicidal ratio of 5% or lower (almost no effect))
d: soybean, effect on crop grade (soybean): 0 (Herbicidal ratio of 5% or lower (almost no effect))
Herbicidal effect grade, B: Scirpus juncoides (Scirpus juncoides): 3 (Herbicidal ratio of 40% or higher and lower than 70%)
b: directly sowed rice plant, effect on crop grade (rice): 5 (Herbicidal ratio of 90% or more (almost completely withered))
H: Echinochloa crus-galli var. crus-galli, herbicidal effect grade [2, 5]: 5 (Herbicidal ratio of 90% or more (almost completely withered))
J: Alopecurus myosuroides, herbicidal effect grade (Alopecurus myosuroides): 5 (Herbicidal ratio of 90% or more (almost completely withered))
c: corn, effect on crop grade (corn [3]): 3 (Herbicidal ratio of 40% or higher and lower than 70%)
L: Apera spica-venti, herbicidal effect grade (Apera spica-venti; [5]): 2 (Herbicidal ratio of 20% or higher and lower than 40%)
c: corn, effect on crop grade (corn [4]): 3 (Herbicidal ratio of 40% or higher and lower than 70%)

CCc1cc(Br)cc(C)c1C1=C(O)CC(CC(C)=NOC)C1=O (stereo not drawn) [6-001]
Effect grade on crop, a: transplanted rice plant (transplanted rice plant): 5 (Herbicidal ratio of 90% or more (almost completely withered))
M: Abutilon theophrasti, herbicidal effect grade (Abutilon theophrasti; [5]): 0 (Herbicidal ratio of 5% or lower (almost no effect))
herbicidal effect on E, grade 0-5 (Cyperus difformis): 0 (Herbicidal ratio of 5% or lower (almost no effect))
f: beet, effect on crop grade (beet): 0 (Herbicidal ratio of 5% or lower (almost no effect))
H: Echinochloa crus-galli var. crus-galli, herbicidal effect grade [1]: 5 (Herbicidal ratio of 90% or more (almost completely withered))
P: Stellaria media, herbicidal effect grade (Stellaria media; [5]): 0 (Herbicidal ratio of 5% or lower (almost no effect))
d: soybean, effect on crop grade (soybean): 0 (Herbicidal ratio of 5% or lower (almost no effect))
Herbicidal effect grade, B: Scirpus juncoides (Scirpus juncoides): 0 (Herbicidal ratio of 5% or lower (almost no effect))
b: directly sowed rice plant, effect on crop grade (rice): 5 (Herbicidal ratio of 90% or more (almost completely withered))
H: Echinochloa crus-galli var. crus-galli, herbicidal effect grade [2, 5]: 5 (Herbicidal ratio of 90% or more (almost completely withered))
J: Alopecurus myosuroides, herbicidal effect grade (Alopecurus myosuroides): 5 (Herbicidal ratio of 90% or more (almost completely withered))
c: corn, effect on crop grade (corn [3]): 5 (Herbicidal ratio of 90% or more (almost completely withered))
L: Apera spica-venti, herbicidal effect grade (Apera spica-venti; [5]): 5 (Herbicidal ratio of 90% or more (almost completely withered))
c: corn, effect on crop grade (corn [4]): 5 (Herbicidal ratio of 90% or more (almost completely withered))

CON=C(C)CC1CC(O)=C(c2c(C)cc(-c3cccc(Cl)c3)cc2C)C1=O (mixture of isomers) [6-034]
Effect grade on crop, a: transplanted rice plant (transplanted rice plant): 5 (Herbicidal ratio of 90% or more (almost completely withered))
M: Abutilon theophrasti, herbicidal effect grade (Abutilon theophrasti; [5]): 1 (Herbicidal ratio of 5% or higher and lower than 20%)
herbicidal effect on E, grade 0-5 (Cyperus difformis): 4 (Herbicidal ratio of 70% or higher and lower than 90%)
f: beet, effect on crop grade (beet): 0 (Herbicidal ratio of 5% or lower (almost no effect))
H: Echinochloa crus-galli var. crus-galli, herbicidal effect grade [1]: 5 (Herbicidal ratio of 90% or more (almost completely withered))
P: Stellaria media, herbicidal effect grade (Stellaria media; [5]): 0 (Herbicidal ratio of 5% or lower (almost no effect))
d: soybean, effect on crop grade (soybean): 0 (Herbicidal ratio of 5% or lower (almost no effect))
Herbicidal effect grade, B: Scirpus juncoides (Scirpus juncoides): 5 (Herbicidal ratio of 90% or more (almost completely withered))
b: directly sowed rice plant, effect on crop grade (rice): 2 (Herbicidal ratio of 20% or higher and lower than 40%)
H: Echinochloa crus-galli var. crus-galli, herbicidal effect grade [2, 5]: 5 (Herbicidal ratio of 90% or more (almost completely withered))
J: Alopecurus myosuroides, herbicidal effect grade (Alopecurus myosuroides): 5 (Herbicidal ratio of 90% or more (almost completely withered))
c: corn, effect on crop grade (corn [3]): 1 (Herbicidal ratio of 5% or higher and lower than 20%)
L: Apera spica-venti, herbicidal effect grade (Apera spica-venti; [5]): 5 (Herbicidal ratio of 90% or more (almost completely withered))
c: corn, effect on crop grade (corn [4]): 5 (Herbicidal ratio of 90% or more (almost completely withered))

CON=C(C)CC1CC(OC(=O)c2ccccc2C(F)(F)F)=C(c2c(C)cc(C)cc2C)C1=O (stereo not drawn) [1-154]
Effect grade on crop, a: transplanted rice plant (transplanted rice plant): 5 (Herbicidal ratio of 90% or more (almost completely withered))
M: Abutilon theophrasti, herbicidal effect grade (Abutilon theophrasti; 320 g/ha): 4 (Herbicidal ratio of 70% or higher and lower than 90%)
herbicidal effect on E, grade 0-5 (Cyperus difformis): 5 (Herbicidal ratio of 90% or more (almost completely withered))
f: beet, effect on crop (criteria 0-5) (beet): 1 (Herbicidal ratio of 5% or higher and lower than 20%)
H: Echinochloa crus-galli var. crus-galli, herbicidal effect (criteria 0-5) [1]: 5 (Herbicidal ratio of 90% or more (almost completely withered))
P: Stellaria media, herbicidal effect grade (Stellaria media; 320 g/ha): 0 (Herbicidal ratio of 5% or lower (almost no effect))
d: soybean, effect on crop (criteria 0-5) (soybean): 3 (Herbicidal ratio of 40% or higher and lower than 70%)
Herbicidal effect grade, B: Scirpus juncoides (Scirpus juncoides): 4 (Herbicidal ratio of 70% or higher and lower than 90%)
b: directly sowed rice plant, effect grade on crop (rice): 5 (Herbicidal ratio of 90% or more (almost completely withered))
H: Echinochloa crus-galli var. crus-galli, herbicidal effect grade ([2]; 320 g/ha): 5 (Herbicidal ratio of 90% or more (almost completely withered))
J: Alopecurus myosuroides, herbicidal effect (criteria 0-5) (Alopecurus myosuroides): 5 (Herbicidal ratio of 90% or more (almost completely withered))
c: corn, effect grade on crop (corn [3]): 0 (Herbicidal ratio of 5% or lower (almost no effect))
L: Apera spica-venti, herbicidal effect grade (Apera spica-venti; 320 g/ha): 5 (Herbicidal ratio of 90% or more (almost completely withered))
c: corn, effect on crop (criteria 0-5) (corn [4]): 3 (Herbicidal ratio of 40% or higher and lower than 70%)

CC(=O)C(C(C)=O)C1CC(O)=C(c2c(C)cc(C)cc2C)C1=O (stereo not drawn) [2-002]
Effect grade on crop, a: transplanted rice plant (transplanted rice plant): 0 (Herbicidal ratio of 5% or lower (almost no effect))
M: Abutilon theophrasti, herbicidal effect grade (Abutilon theophrasti; 320 g/ha): 0 (Herbicidal ratio of 5% or lower (almost no effect))
herbicidal effect on E, grade 0-5 (Cyperus difformis): 0 (Herbicidal ratio of 5% or lower (almost no effect))
f: beet, effect on crop grade (beet): 0 (Herbicidal ratio of 5% or lower (almost no effect))
H: Echinochloa crus-galli var. crus-galli, herbicidal effect grade [1]: 3 (Herbicidal ratio of 40% or higher and lower than 70%)
P: Stellaria media, herbicidal effect grade (Stellaria media; 320 g/ha): 0 (Herbicidal ratio of 5% or lower (almost no effect))
d: soybean, effect on crop grade (soybean): 0 (Herbicidal ratio of 5% or lower (almost no effect))
Herbicidal effect grade, B: Scirpus juncoides (Scirpus juncoides): 0 (Herbicidal ratio of 5% or lower (almost no effect))
b: directly sowed rice plant, effect grade on crop (rice): 1 (Herbicidal ratio of 5% or higher and lower than 20%)
H: Echinochloa crus-galli var. crus-galli, herbicidal effect grade ([2]; 320 g/ha): 0 (Herbicidal ratio of 5% or lower (almost no effect))
J: Alopecurus myosuroides, herbicidal effect grade (Alopecurus myosuroides): 4 (Herbicidal ratio of 70% or higher and lower than 90%)
c: corn, effect grade on crop (corn [3]): 0 (Herbicidal ratio of 5% or lower (almost no effect))
L: Apera spica-venti, herbicidal effect grade (Apera spica-venti; 320 g/ha): 0 (Herbicidal ratio of 5% or lower (almost no effect))
c: corn, effect on crop grade (corn [4]): 0 (Herbicidal ratio of 5% or lower (almost no effect))

CCOC(=O)C(C(=O)C(C)C)C1CC(O)=C(c2c(C)cc(C)cc2C)C1=O (stereo not drawn) [2-009]
Effect grade on crop, a: transplanted rice plant (transplanted rice plant): 0 (Herbicidal ratio of 5% or lower (almost no effect))
M: Abutilon theophrasti, herbicidal effect grade (Abutilon theophrasti; [5]): 0 (Herbicidal ratio of 5% or lower (almost no effect))
herbicidal effect on E, grade 0-5 (Cyperus difformis): 0 (Herbicidal ratio of 5% or lower (almost no effect))
f: beet, effect on crop grade (beet): 0 (Herbicidal ratio of 5% or lower (almost no effect))
H: Echinochloa crus-galli var. crus-galli, herbicidal effect grade [1]: 3 (Herbicidal ratio of 40% or higher and lower than 70%)
P: Stellaria media, herbicidal effect grade (Stellaria media; [5]): 0 (Herbicidal ratio of 5% or lower (almost no effect))
d: soybean, effect on crop grade (soybean): 0 (Herbicidal ratio of 5% or lower (almost no effect))
Herbicidal effect grade, B: Scirpus juncoides (Scirpus juncoides): 0 (Herbicidal ratio of 5% or lower (almost no effect))
b: directly sowed rice plant, effect on crop grade (rice): 5 (Herbicidal ratio of 90% or more (almost completely withered))
H: Echinochloa crus-galli var. crus-galli, herbicidal effect grade [2, 5]: 1 (Herbicidal ratio of 5% or higher and lower than 20%)
J: Alopecurus myosuroides, herbicidal effect grade (Alopecurus myosuroides): 1 (Herbicidal ratio of 5% or higher and lower than 20%)
c: corn, effect on crop grade (corn [3]): 0 (Herbicidal ratio of 5% or lower (almost no effect))
L: Apera spica-venti, herbicidal effect grade (Apera spica-venti; [5]): 0 (Herbicidal ratio of 5% or lower (almost no effect))
c: corn, effect on crop grade (corn [4]): 0 (Herbicidal ratio of 5% or lower (almost no effect))
